The test addresses T1, human progesterone receptor A (Homo sapiens, UniProt P06401).
T1 construct: expressed in transfected cells; host or cells: SK-N-MC human neuroblastoma cells, stably transfected with pRChPR-A-neo and pMMTV-LUC
T1 sequence (P06401 1-769 isoform P06401-2): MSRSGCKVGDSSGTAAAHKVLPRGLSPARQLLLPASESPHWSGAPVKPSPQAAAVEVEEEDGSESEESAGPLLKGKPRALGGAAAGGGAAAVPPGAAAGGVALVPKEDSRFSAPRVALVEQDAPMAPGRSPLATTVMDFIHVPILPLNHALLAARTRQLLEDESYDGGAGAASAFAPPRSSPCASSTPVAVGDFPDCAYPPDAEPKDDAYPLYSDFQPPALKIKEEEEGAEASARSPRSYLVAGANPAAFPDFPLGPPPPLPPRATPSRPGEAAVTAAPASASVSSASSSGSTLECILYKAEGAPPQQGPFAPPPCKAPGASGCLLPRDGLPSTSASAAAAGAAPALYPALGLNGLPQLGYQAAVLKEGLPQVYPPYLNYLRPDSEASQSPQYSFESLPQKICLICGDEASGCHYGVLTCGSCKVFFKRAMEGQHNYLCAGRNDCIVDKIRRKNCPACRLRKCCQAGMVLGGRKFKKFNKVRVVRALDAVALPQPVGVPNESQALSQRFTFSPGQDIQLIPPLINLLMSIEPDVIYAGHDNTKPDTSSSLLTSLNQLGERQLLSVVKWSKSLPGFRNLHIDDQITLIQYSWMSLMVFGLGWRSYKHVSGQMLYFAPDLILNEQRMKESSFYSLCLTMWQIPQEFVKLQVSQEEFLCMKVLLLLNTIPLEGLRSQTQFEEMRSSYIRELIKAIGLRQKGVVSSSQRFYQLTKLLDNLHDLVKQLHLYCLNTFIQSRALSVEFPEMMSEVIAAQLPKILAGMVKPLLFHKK
The experiment in a line: Progesterone receptor transactivation test in stably transfected SK-N-MC cells (PR-A, MMTV-LUC reporter). It is filed as cell-based. The settings on record: 0.1 nmol/l promegestone, 24 hours, read-out: PR-A IC50 (antagonistic potency). The protocol: Progesterone receptor-antagonistic action in stable transfectants of human neuroblastoma cells (SK-N-MC cells) with the human progesterone A or progesterone B receptor and an MN-LUC reporter construct SK-N-MC cells (human neuroblastoma cells) which have been stably transfected with plasmids expressing the human progesterone receptor B (pRChPR-B-neo) or the human progesterone receptor A (pRChPR-A-neo) and a reporter construct (pMMTV-LUC) were incubated for 24 hours either in the absence (negative control) or in the presence of ascending amounts of the particular test compound (0.01 nmol/l, 0.1 nmol/l, 1 […], 100 nmol/l and […]), in order to determine the agonistic efficacy. As a positive control of the reporter gene induction, the cells were treated with the synthetic gestagen promegestone (0.01 nmol/l, 0.1 nmol/l, 1 nmol/l, 10 nmol/l, 100 nmol/l and […]). To determine the antagonistic activity, the cells were treated with 0.1 nmol/l promegestone and additionally with ascending amounts of the particular test compound (0.01 nmol/l, 0.1 nmol/l, 1 nmol/l, 10 nmol/l, 100 nmol/l and […]). The activity of the reporter gene LUC (LUC=luciferase) was determined in the cell lysates and measured as RLU (relative light units). All measurements are reported as % efficacy and as EC50 and IC50 concentrations.
In general, IC50 refers to the point on the concentration scale where inhibition reaches its midpoint. Regarding `CC(=O)O[C@H](C)c1ccc([C@H]2C[C@@]3(C)C(CC[C@@]3(O)C(F)(F)C(F)(F)F)C3CCC4=CC(=O)CCC4=C32)cc1` (mixture of isomers) [Example 1, acetic acid (RS)-1-[4-((8S,11R,13S,14S,17S)-17-hydroxy-13-methyl-3-oxo-17-pentafluoroethyl-2,3,6,7,8,11,12,13,14,15,16,17-dodecahydro-1H-cyclopenta[a]phenanthren-11-yl)phenyl]ethyl ester], the IC50 came out at 0.07 nM. In the case of `CC(C)CC(=O)OC(C)c1ccc([C@H]2C[C@@]3(C)C(CC[C@@]3(O)C(F)(F)C(F)(F)F)C3CCC4=CC(=O)CCC4=C32)cc1` (mixture of isomers) [Example 3, 3-Methylbutyric acid (RS)-1-[4-((8S,11R,13S,14S,17S)-17-hydroxy-13-methyl-3-oxo-17-pentafluoroethyl-2,3,6,7,8,11,12,13,14,15,16,17-dodecahydro-1H-cyclopenta[a]phenanthren-11-yl)phenyl]ethyl ester], the IC50 was 0.21 nM. In the case of `CC(OC(=O)CC(C)(C)C)c1ccc([C@H]2C[C@@]3(C)C(CC[C@@]3(O)C(F)(F)C(F)(F)F)C3CCC4=CC(=O)CCC4=C32)cc1` (mixture of isomers) [Example 4, 3,3-Dimethylbutyric acid (RS)-1-[4-((8S,11R,13S,14S,17S)-17-hydroxy-13-methyl-3-oxo-17-pentafluoroethyl-2,3,6,7,8,11,12,13,14,15,16,17-dodecahydro-1H-cyclopenta[a]phenanthren-11-yl)phenyl]ethyl ester] it was 0.2 nM; in that of `CC(OC(=O)[C@@H](C)NC(=O)OC(C)(C)C)c1ccc([C@H]2C[C@@]3(C)[C@@H](CC[C@@]3(O)C(F)(F)C(F)(F)F)[C@@H]3CCC4=CC(=O)CCC4=C32)cc1` (mixture of isomers) [Example 6, (R)-2-tert-Butoxycarbonylaminopropionic acid (RS)-1-[4-((8S,11R,13S,-14S,17S)-17-hydroxy-13-methyl-3-oxo-17-pentafluoroethyl-2,3,6,7,8,11,12,13,14,15,16,17-dodecahydro-1H-cyclopenta[a]phenanthren-11-yl)phenyl]ethyl ester], 0.1 nM.

With `CC(C)C(=O)OC(C)c1ccc([C@H]2C[C@@]3(C)C(CC[C@@]3(O)C(F)(F)C(F)(F)F)C3CCC4=CC(=O)CCC4=C32)cc1` (mixture of isomers) [Example 2, Isobutyric acid (RS)-1-[4-((8S,11R,13S,14S,17S)-17-hydroxy-13-methyl-3-oxo-17-pentafluoroethyl-2,3,6,7,8,11,12,13,14,15,16,17-dodecahydro-1H-cyclopenta[a]-phenanthren-11-yl)phenyl]ethyl ester], the IC50 is 0.1 nM.

Consider `CC(OC(=O)[C@@H](NC(=O)OC(C)(C)C)C(C)C)c1ccc([C@H]2C[C@@]3(C)C(CC[C@@]3(O)C(F)(F)C(F)(F)F)C3CCC4=CC(=O)CCC4=C32)cc1` (mixture of isomers) [Example 5, (S)-2-tert-Butoxycarbonylamino-3-methylbutyric acid (RS)-1-[4-((8S,11R,-13S,14S,17S)-17-hydroxy-13-methyl-3-oxo-17-pentafluoroethyl-2,3,6,7,8,11,12,13,14,15,-16,17-dodecahydro-1H-cyclopenta[a]phenanthren-11-yl)phenyl]ethyl ester], for which the 50% inhibitory concentration (IC50) turned out to be 0.3 nM. In the case of `CC(OC(=O)[C@H](C)NC(=O)OC(C)(C)C)c1ccc([C@H]2C[C@@]3(C)C(CC[C@@]3(O)C(F)(F)C(F)(F)F)C3CCC4=CC(=O)CCC4=C32)cc1` (mixture of isomers) [Example 7, (S)-2-tert-Butoxycarbonylaminopropionic acid (RS)-1-[4-((8S,11R,13S,-14S,17S)-17-hydroxy-13-methyl-3-oxo-17-pentafluoroethyl-2,3,6,7,8,11,12,13,14,15,16,17-dodecahydro-1H-cyclopenta[a]phenanthren-11-yl)phenyl]ethyl ester] it was 0.14 nM.
